Test results published in PubChem BioAssay AID588465 (NMMLSC, 2011).

Molecular target: Beta-adrenergic receptor kinase 1 (Homo sapiens) (UniProt P25098)
Assay: GRK2 kinase inhibitors, rhodopsin substrate, late-stage follow-up, orthogonal assay for GRK2 aptamer-displacement inhibitor project, biochemical, set 1 (AID 588465)
Details: GRK2 rhodopsin phosphorylation, 32P incorporation, ROS; at 200 µM; stronger effect = lower value

Beta-adrenergic receptor kinase 1 (Homo sapiens), sequence (P25098 whole entry, looked up): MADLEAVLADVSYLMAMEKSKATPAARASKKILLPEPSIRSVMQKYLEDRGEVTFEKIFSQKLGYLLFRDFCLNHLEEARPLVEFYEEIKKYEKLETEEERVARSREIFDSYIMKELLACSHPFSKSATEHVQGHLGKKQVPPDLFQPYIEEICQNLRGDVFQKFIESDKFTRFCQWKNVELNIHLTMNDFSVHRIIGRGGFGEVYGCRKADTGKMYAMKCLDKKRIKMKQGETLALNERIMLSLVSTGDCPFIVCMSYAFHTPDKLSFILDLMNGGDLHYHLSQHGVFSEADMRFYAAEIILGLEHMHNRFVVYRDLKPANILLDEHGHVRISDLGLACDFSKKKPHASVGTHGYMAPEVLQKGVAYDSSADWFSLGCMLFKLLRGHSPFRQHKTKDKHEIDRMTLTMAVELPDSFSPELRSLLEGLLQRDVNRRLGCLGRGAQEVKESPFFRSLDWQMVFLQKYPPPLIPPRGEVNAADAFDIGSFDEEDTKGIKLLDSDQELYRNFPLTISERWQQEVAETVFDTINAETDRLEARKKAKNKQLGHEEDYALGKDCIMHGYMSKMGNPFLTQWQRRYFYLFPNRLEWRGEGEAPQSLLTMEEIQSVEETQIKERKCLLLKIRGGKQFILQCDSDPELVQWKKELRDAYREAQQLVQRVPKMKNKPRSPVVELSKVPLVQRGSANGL

| SMILES | percent response (negative = inhibition) |
| --- | --- |
| Cc1cccc(N2CCN(C(=O)CCS(=O)(=O)c3ccc(Br)cc3)CC2C)c1 (stereo not given) | -24% |
| O=C(O)C1CC(=O)N(c2ccc3c(c2)OCCO3)C1 (stereo not given) | -77.7% |
| Cc1cc(=O)[nH]c(SCC(=O)NCc2ccco2)n1 | -17.7% |
| CCc1ccccc1NC(=O)CCS(=O)(=O)c1ccc(Br)cc1 | -26% |
| CCOc1ccc(CCNC(=O)CCS(=O)(=O)c2ccc(Br)cc2)cc1OCC | -69.7% |
| COc1ccc(CNC(=O)CCS(=O)(=O)c2ccc(Br)cc2)cc1 | -59.5% |

Results, then the compound that gave them:

| percent response (negative = inhibition) | SMILES |
| --- | --- |
| -42.4% | Cc1cc2ccccc2n1CCNC(=O)c1cccs1 |
| -35.6% | O=C(CCS(=O)(=O)c1ccc(Br)cc1)NCCc1ccc(Cl)cc1 |
| -12.6% | Cc1ccccc1NC(=O)CCS(=O)(=O)c1ccc(Br)cc1 |
| -37.5% | O=C(CCS(=O)(=O)c1ccc(Br)cc1)Nc1cc(F)ccc1F |
